{"source": "patent US20220007644A1", "about": "“COMPOSITIONS COMPRISING PYRIDINE CARBOXYLATE HERBICIDES WITH PHOTOSYSTEM II AND OPTIONAL HPPD INHIBITOR HERBICIDES” (Corteva Agriscience LLC, priority 2018, published 2022)", "type_in_all_cases": "in vivo", "key": {"[1]": {"test_system": "IPOHE, Ipomoea hederacea (ivyleaf morningglory)", "experiment": "Greenhouse postemergence herbicidal effect (visual injury, 20-22 d)", "text": "(§1) Greenhouse Trial Methodology—Evaluation of Postemergence Herbicidal Effect\n(§2) Seeds of the desired test plant species were planted in a 90:10% v/v (volume/volume) mixture of PRO-MIX® BX (Premier Tech Horticulture, Quakertown, Pa., USA) and PROFILE®GREENS GRADE™ (Profile Products LLC, Buffalo Grove, Ill., USA) planting mixture, which typically has a pH of 5.2 to 6.2 and an organic matter content of at least 50 percent, in plastic pots with a surface area of 103.2 square centimeters (cm^2). In some aspects, to help ensure good germination and healthy plants, a fungicide treatment and/or other chemical or physical treatment was applied. The plants were grown for 7-36 days (d) in a greenhouse with an approximate 14-hour (h) photoperiod which was maintained at about 23° C. during the day and 22° C. during the night. Nutrients and water were added on a regular basis and supplemental lighting was provided with overhead metal halide 1000-Watt lamps as necessary. The plants were employed for testing when they reached the second or third true leaf stage.\n(§3) Emulsifiable concentrates of each of each pyridine carboxylate herbicide (Compound A or Compound B) were prepared at 100 grams acid equivalent per liter (g ae/L). The emulsifiable concentrates also included a safener, cloquintocet-mexyl, at 120 grams active ingredient per liter (g ai/L), unless otherwise noted below. An aliquot of each emulsifiable concentrate was placed in a 25 mL glass vial and diluted with an aqueous mixture of 1.25% (v/v) ACTIROB® B esterified rapeseed oil (Bayer Crop Science, Research Triangle Park, N.C., USA) or MSO® Concentrate with LECI-TECH® methylated soybean oil (Loveland Products, Loveland, Colo., USA) to obtain concentrated stock solutions at the highest application rate for each herbicide, based upon a 12 milliliter (mL) application volume at a rate of 187 liters per hectare (L/ha). The concentrated stock solutions were further diluted with an aqueous mixture of 1.25% v/v ACTIROB® B or MSO® Concentrate with LECI-TECH® to obtain stock solutions at reduced application rates for each herbicide. Spray solutions of the herbicide combinations (Compound A or Compound B plus PS-II herbicide and optional HPPD herbicide) were prepared by adding weighed amounts or aliquots of the PS-II herbicide and optional HPPD herbicide to the stock solutions of Compound A or Compound B to form 12-mL spray solutions in two- or three-way combinations.\n(§4) The spray solutions were applied to the plant material with an overhead Mandel track sprayer equipped with 8002E nozzles calibrated to deliver 187 L/ha over an application area of 0.503 square meters (m^2) at a spray height of 18 inches ([…] centimeters (cm)) above the average plant canopy. Control plants were sprayed in the same manner with the solvent blank. All pyridine carboxylate herbicide (component a) application rates are given as “g ae/ha” and all PS II inhibitor herbicide (component b) and HPPD inhibitor herbicide (component c) application rates are given as “g ai/ha.”\n(§5) The treated plants and control plants were placed in a greenhouse as described above and watered by sub-irrigation to prevent wash-off of the test compounds. After 20-22 d, the condition of the test plants as compared with that of the control plants was determined visually and scored on a scale of 0 to 100 percent where 0 corresponds to no injury and 100 corresponds to complete kill."}, "[2]": {"test_system": "POLCO, Polygonum convolvulus (wild buckwheat)", "experiment": "Greenhouse postemergence herbicidal effect (visual injury, 20-22 d)", "conditions": "POLCO, Compound A 10 g/ha", "text": "as §1, §2, §3, §4, §5"}, "[3]": {"test_system": "AVEFA, Avena fatua (wild oat)", "experiment": "Greenhouse postemergence herbicidal effect (visual injury, 20-22 d)", "text": "as §1, §2, §3, §4, §5"}, "[4]": {"test_system": "LEFCH, Leptochloa chinensis (Chinese sprangletop)", "experiment": "Greenhouse postemergence herbicidal effect (visual injury, 20-22 d)", "conditions": "Compound A 10 g/ha, without cloquintocet-mexyl safener", "text": "as §1, §2, §3, §4, §5"}, "[5]": {"test_system": "CIRAR, Cirsium arvense (Canada thistle)", "experiment": "Greenhouse postemergence herbicidal effect (visual injury, 20-22 d)", "conditions": "for % visual injury, Obs: CIRAR, Compound A 10 g/ha", "text": "as §1, §2, §3, §4, §5"}, "[6]": {"test_system": "SORVU, Sorghum vulgare (grain sorghum)", "experiment": "Greenhouse postemergence herbicidal effect (visual injury, 20-22 d)", "text": "as §1, §2, §3, §4, §5"}, "[7]": {"test_system": "VIOTR, Viola tricolor (wild pansy)", "experiment": "Greenhouse postemergence herbicidal effect (visual injury, 20-22 d)", "text": "as §1, §2, §3, §4, §5"}, "[8]": {"test_system": "BRSNW, Brassica napus (winter rape)", "experiment": "Greenhouse postemergence herbicidal effect (visual injury, 20-22 d)", "text": "as §1, §2, §3, §4, §5"}, "[9]": {"test_system": "AMARE, Amaranthus retroflexus (pigweed)", "experiment": "Greenhouse postemergence herbicidal effect (visual injury, 20-22 d)", "text": "as §1, §2, §3, §4, §5"}, "[10]": {"test_system": "MATCH, Matricaria chamomilla (wild chamomile)", "experiment": "Greenhouse postemergence herbicidal effect (visual injury, 20-22 d)", "text": "as §1, §2, §3, §4, §5"}, "[11]": {"test_system": "CYPES, Cyperus esculentus (nutsedge)", "experiment": "Greenhouse postemergence herbicidal effect (visual injury, 20-22 d)", "conditions": "Compound A 10 g/ha", "text": "as §1, §2, §3, §4, §5"}, "[12]": {"test_system": "CHEAL, Chenopodium album L. (common lambsquarters)", "experiment": "Greenhouse postemergence herbicidal effect (visual injury, 20-22 d)", "text": "as §1, §2, §3, §4, §5"}, "[13]": {"test_system": "GLXMA, Glycine max (soybean)", "experiment": "Greenhouse postemergence herbicidal effect (visual injury, 20-22 d)", "conditions": "for % visual injury, Obs: GLXMA, Compound A 10 g/ha", "text": "as §1, §2, §3, §4, §5"}, "[14]": {"test_system": "SINAR, Sinapis arvensis (wild mustard)", "experiment": "Greenhouse postemergence herbicidal effect (visual injury, 20-22 d)", "text": "as §1, §2, §3, §4, §5"}, "[15]": {"test_system": "ECHCG, Echinochloa crus-galli (barnyard grass)", "experiment": "Greenhouse postemergence herbicidal effect (visual injury, 20-22 d)", "conditions": "Compound A 10 g/ha, without cloquintocet-mexyl safener", "text": "as §1, §2, §3, §4, §5"}, "ZEAMX, Zea mays (maize)": {"test_system": "ZEAMX, Zea mays (maize)", "experiment": "Greenhouse postemergence phytotoxicity on crop (visual injury, 20-22 d)", "conditions": "Compound A 10 g/ha", "text": "as §1, §2, §3, §4, §5"}, "[16]": {"test_system": "HORVS, Hordeum vulgare (spring barley)", "experiment": "Greenhouse postemergence phytotoxicity on crop (visual injury, 20-22 d)", "text": "as §1, §2, §3, §4, §5"}, "[17]": {"test_system": "TRZAS, Triticum aestivum (spring wheat)", "experiment": "Greenhouse postemergence phytotoxicity on crop (visual injury, 20-22 d)", "text": "as §1, §2, §3, §4, §5"}, "[18]": {"conditions": "without cloquintocet-mexyl safener"}}, "note": "Several values for one entry are separate records, joined by “and”; a condition that tells them apart may be missing. Identical values can stand only once.", "data": [{"smiles": "N#CCOC(=O)c1nc(-c2ccc3cc[nH]c3c2F)c(F)c(N)c1Cl", "note": "[Compound A, cyanomethyl 4-amino-3-chloro-5-fluoro-6-(7-fluoro-1H-indol-6-yl)pyridine-2-carboxylate]", "values": [{"measurement": "visual injury", "setting": "[1]; 7.5 g ae/ha alone", "result": 20, "unit": "%"}, {"measurement": "visual injury", "setting": "[1]; 10 g ae/ha alone", "result": 25, "unit": "%"}, {"measurement": "% visual injury, Obs", "setting": "[1]; IPOHE, Compound A 10 g/ha, without cloquintocet-mexyl safener", "result": 15, "unit": "%"}, {"measurement": "% visual injury, Obs", "setting": "[2]", "result": 93, "unit": "%"}, {"measurement": "% visual injury, Obs", "setting": "[2]; [18]", "result": 78, "unit": "%"}, {"measurement": "visual injury", "setting": "[3]; 7.5 g ae/ha alone", "result": 0, "unit": "%"}, {"measurement": "visual injury", "setting": "[3]; 10 g ae/ha alone", "result": 0, "unit": "%"}, {"measurement": "% visual injury, Obs", "setting": "[3]; AVEFA, Compound A 10 g/ha, without cloquintocet-mexyl safener", "result": 0, "unit": "%"}, {"measurement": "% visual injury, Obs", "setting": "[4]", "result": 0, "unit": "%"}, {"measurement": "visual injury", "setting": "[5]; 10 g ae/ha alone", "result": "40% and 60% and 30% and 55%"}, {"measurement": "% visual injury, Obs", "setting": "[5]", "result": 60, "unit": "%"}, {"measurement": "% visual injury, Obs", "setting": "[5]; [18]", "result": 28, "unit": "%"}, {"measurement": "visual injury", "setting": "[6]; 7.5 g ae/ha alone", "result": 0, "unit": "%"}, {"measurement": "visual injury", "setting": "[6]; 10 g ae/ha alone", "result": 0, "unit": "%"}, {"measurement": "% visual injury, Obs", "setting": "[6]; SORVU, Compound A 10 g/ha, without cloquintocet-mexyl safener", "result": 0, "unit": "%"}, {"measurement": "visual injury", "setting": "[7]; 7.5 g ae/ha alone", "result": 45, "unit": "%"}, {"measurement": "visual injury", "setting": "[7]; 10 g ae/ha alone", "result": 15, "unit": "%"}, {"measurement": "% visual injury, Obs", "setting": "[7]; VIOTR, Compound A 10 g/ha, without cloquintocet-mexyl safener", "result": 15, "unit": "%"}, {"measurement": "visual injury", "setting": "[8]; 7.5 g ae/ha alone", "result": "35% and 63%"}, {"measurement": "visual injury", "setting": "[8]; 10 g ae/ha alone", "result": "43% and 68% and 40%"}, {"measurement": "% visual injury, Obs", "setting": "[8]; BRSNW, Compound A 10 g/ha, without cloquintocet-mexyl safener", "result": 65, "unit": "%"}, {"measurement": "visual injury", "setting": "[9]; 7.5 g ae/ha alone", "result": "78% and 70% and 90%"}, {"measurement": "visual injury", "setting": "[9]; 10 g ae/ha alone", "result": "73% and 90% and 85%"}, {"measurement": "% visual injury, Obs", "setting": "[9]; AMARE, Compound A 10 g/ha", "result": 88, "unit": "%"}, {"measurement": "visual injury", "setting": "[10]; 7.5 g ae/ha alone", "result": "20% and 18% and 10%"}, {"measurement": "visual injury", "setting": "[10]; 10 g ae/ha alone", "result": "30% and 20%"}, {"measurement": "% visual injury, Obs", "setting": "[11]", "result": 8, "unit": "%"}, {"measurement": "% visual injury, Obs", "setting": "[11]; [18]", "result": 0, "unit": "%"}, {"measurement": "visual injury", "setting": "[12]; 7.5 g ae/ha alone", "result": "88% and 70% and 75%"}, {"measurement": "visual injury", "setting": "[12]; 10 g ae/ha alone", "result": "93% and 83% and 78% and 80%"}, {"measurement": "visual injury", "setting": "[13]; 7.5 g ae/ha alone", "result": 80, "unit": "%"}, {"measurement": "visual injury", "setting": "[13]; 10 g ae/ha alone", "result": 90, "unit": "%"}, {"measurement": "% visual injury, Obs", "setting": "[13]", "result": 90, "unit": "%"}, {"measurement": "% visual injury, Obs", "setting": "[13]; [18]", "result": 85, "unit": "%"}, {"measurement": "visual injury", "setting": "[14]; 7.5 g ae/ha alone", "result": "88% and 85% and 83%"}, {"measurement": "visual injury", "setting": "[14]; 10 g ae/ha alone", "result": "90% and 92% and 88%"}, {"measurement": "% visual injury, Obs", "setting": "[15]", "result": 58, "unit": "%"}, {"measurement": "% visual injury, Obs", "setting": "ZEAMX, Zea mays (maize)", "result": 0, "unit": "%"}, {"measurement": "visual injury", "setting": "[16]; 7.5 g ae/ha alone", "result": "0% and 8%"}, {"measurement": "visual injury", "setting": "[16]; 10 g ae/ha alone", "result": 0, "unit": "%"}, {"measurement": "visual injury", "setting": "[17]; 7.5 g ae/ha alone", "result": 0, "unit": "%"}, {"measurement": "visual injury", "setting": "[17]; 10 g ae/ha alone", "result": 0, "unit": "%"}, {"measurement": "% visual injury, Obs", "setting": "[17]; TRZAS, Compound A 10 g/ha", "result": 3, "unit": "%"}]}]}
